pIC50: −log10 of the molar value. Where two headings read alike, the source gives them in different places.
Assays:
[1] = molecular target: ATM(h) (Homo sapiens (Human), UniProt Q13315); experiment: ATM activity, […] KINASEPROFILER; format: biochemical; conditions: estimated IC50
Text: Estimated IC50 values are as follows (obtained using […] KINASEPROFILER): […]

[2] = system: U2OS cells; experiment: Cell death and growth assay, U2OS cells; format: cell-based; conditions: set concentrations, in combination with Gemcitabine
Procedure: U20S and all other cells were grown in (RPMI) supplemented with 10% fetal bovine serum (FBS) and antibiotics. Imaging and time-lapse compatible NucLight red cell lines were generated as recommend by Essen Bioscience Inc. using lentiviral particles, infection and puromycin selection protocols.
The results were compared back to a prediction of cell growth and death with the combination of the two compounds (FIG. 18A).
In all cases, relative cell proliferation is reduced with the combinations compared to the drugs alone (FIG. 21B-C).

[3] = molecular target: ALK1/ACVRL1 (Homo sapiens (Human), UniProt P37023); experiment: Broad kinase panel screening; format: biochemical
Text: (§1) Example 16: Broad Kinase Panel Screening (359)
(§2) Major hits out of 359 were: ALK, ARK, c-MER, CLK1, DYRK, GSK3a, GSK3b, FLT2, FLT3, MLK1, SIK2, TNIK, and YSK4.

[4] = molecular target: ALK2/ACVR1 (Homo sapiens (Human), UniProt Q04771); experiment: Broad kinase panel screening; format: biochemical
Text: as §1, §2

[5] = molecular target: ARK5/NUAK1 (Homo sapiens (Human), UniProt O60285); experiment: Broad kinase panel screening; format: biochemical
Text: as §1, §2

[6] = molecular target: CLK1 (Homo sapiens (Human), UniProt P49759); experiment: Broad kinase panel screening; format: biochemical
Text: as §1, §2

[7] = molecular target: CLK4 (Homo sapiens (Human), UniProt Q9HAZ1); experiment: Broad kinase panel screening; format: biochemical
Text: as §1, §2

[8] = molecular target: DDR1 (Homo sapiens (Human), UniProt Q08345); experiment: Broad kinase panel screening; format: biochemical
Text: as §1, §2

[9] = molecular target: DYRK2 (Homo sapiens (Human), UniProt Q92630); experiment: Broad kinase panel screening; format: biochemical
Text: as §1, §2

[10] = molecular target: FLT4/VEGFR3 (Homo sapiens (Human), UniProt P35916); experiment: Broad kinase panel screening; format: biochemical
Text: as §1, §2

[11] = molecular target: GSK3a (Homo sapiens (Human), UniProt P49840); experiment: Broad kinase panel screening; format: biochemical
Text: as §1, §2

[12] = molecular target: GSK3b (Homo sapiens (Human), UniProt P49841); experiment: Broad kinase panel screening; format: biochemical
Text: as §1, §2

[13] = molecular target: MLK1/MAP3K9 (Homo sapiens (Human), UniProt P80192); experiment: Broad kinase panel screening; format: biochemical
Text: as §1, §2

[14] = molecular target: MLK2/MAP3K10 (Homo sapiens (Human), UniProt Q02779); experiment: Broad kinase panel screening; format: biochemical
Text: as §1, §2

[15] = molecular target: MLK3/MAP3K11 (Homo sapiens (Human), UniProt Q16584); experiment: Broad kinase panel screening; format: biochemical
Text: as §1, §2

[16] = molecular target: PIM1 (Homo sapiens (Human), UniProt P11309); experiment: Broad kinase panel screening; format: biochemical
Text: as §1, §2

[17] = molecular target: PKCmu/PRKD1 (Homo sapiens (Human), UniProt Q15139); experiment: Broad kinase panel screening; format: biochemical
Text: as §1, §2

[18] = molecular target: PKD2/PRKD2 (Homo sapiens (Human), UniProt Q9BZL6); experiment: Broad kinase panel screening; format: biochemical
Text: as §1, §2

[19] = molecular target: RET (Homo sapiens (Human), UniProt P07949); experiment: Broad kinase panel screening; format: biochemical
Text: as §1, §2

[20] = molecular target: SIK2 (Homo sapiens (Human), UniProt Q9H0K1); experiment: Broad kinase panel screening; format: biochemical
Text: as §1, §2

[21] = molecular target: TNIK (Homo sapiens (Human), UniProt Q9UKE5); experiment: Broad kinase panel screening; format: biochemical
Text: as §1, §2

[22] = molecular target: YSK4/MAP3K19 (Homo sapiens (Human), UniProt Q56UN5); experiment: Broad kinase panel screening; format: biochemical
Text: as §1, §2

Chain of PIM1 (P11309 whole entry, species assumed): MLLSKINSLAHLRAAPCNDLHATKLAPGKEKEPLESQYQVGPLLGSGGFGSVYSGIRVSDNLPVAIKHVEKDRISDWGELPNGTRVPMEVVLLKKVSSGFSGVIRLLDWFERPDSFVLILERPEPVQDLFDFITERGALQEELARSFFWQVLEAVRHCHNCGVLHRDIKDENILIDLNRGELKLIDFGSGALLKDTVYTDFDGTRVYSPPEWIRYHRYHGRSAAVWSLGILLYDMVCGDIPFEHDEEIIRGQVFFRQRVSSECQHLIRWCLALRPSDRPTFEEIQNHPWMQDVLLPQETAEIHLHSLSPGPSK
Chain of GSK3a (P49840 whole entry, species assumed): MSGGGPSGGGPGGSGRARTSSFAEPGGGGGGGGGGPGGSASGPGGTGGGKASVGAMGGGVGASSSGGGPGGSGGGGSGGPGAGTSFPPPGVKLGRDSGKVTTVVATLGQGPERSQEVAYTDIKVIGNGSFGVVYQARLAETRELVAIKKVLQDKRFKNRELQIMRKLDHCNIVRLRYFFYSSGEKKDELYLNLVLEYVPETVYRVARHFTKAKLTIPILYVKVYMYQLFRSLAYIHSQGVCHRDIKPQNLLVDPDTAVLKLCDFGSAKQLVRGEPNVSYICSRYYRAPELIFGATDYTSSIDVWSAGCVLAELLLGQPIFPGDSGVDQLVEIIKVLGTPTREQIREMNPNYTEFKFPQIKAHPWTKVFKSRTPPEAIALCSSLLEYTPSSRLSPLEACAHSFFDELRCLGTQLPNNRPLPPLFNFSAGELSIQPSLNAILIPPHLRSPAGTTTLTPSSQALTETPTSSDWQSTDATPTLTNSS
Chain of GSK3b (P49841 whole entry, species assumed): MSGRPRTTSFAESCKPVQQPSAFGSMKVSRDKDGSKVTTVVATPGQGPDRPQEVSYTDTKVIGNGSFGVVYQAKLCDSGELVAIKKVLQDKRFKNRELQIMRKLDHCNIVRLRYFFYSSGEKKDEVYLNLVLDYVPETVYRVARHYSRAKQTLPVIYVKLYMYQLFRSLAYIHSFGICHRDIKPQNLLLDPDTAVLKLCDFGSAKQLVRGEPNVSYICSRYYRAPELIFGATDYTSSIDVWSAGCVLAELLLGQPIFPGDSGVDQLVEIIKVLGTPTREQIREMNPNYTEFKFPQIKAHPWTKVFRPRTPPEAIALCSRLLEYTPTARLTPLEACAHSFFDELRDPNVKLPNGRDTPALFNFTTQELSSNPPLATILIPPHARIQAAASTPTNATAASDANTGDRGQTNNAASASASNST
Chain of MLK3/MAP3K11 (Q16584 whole entry): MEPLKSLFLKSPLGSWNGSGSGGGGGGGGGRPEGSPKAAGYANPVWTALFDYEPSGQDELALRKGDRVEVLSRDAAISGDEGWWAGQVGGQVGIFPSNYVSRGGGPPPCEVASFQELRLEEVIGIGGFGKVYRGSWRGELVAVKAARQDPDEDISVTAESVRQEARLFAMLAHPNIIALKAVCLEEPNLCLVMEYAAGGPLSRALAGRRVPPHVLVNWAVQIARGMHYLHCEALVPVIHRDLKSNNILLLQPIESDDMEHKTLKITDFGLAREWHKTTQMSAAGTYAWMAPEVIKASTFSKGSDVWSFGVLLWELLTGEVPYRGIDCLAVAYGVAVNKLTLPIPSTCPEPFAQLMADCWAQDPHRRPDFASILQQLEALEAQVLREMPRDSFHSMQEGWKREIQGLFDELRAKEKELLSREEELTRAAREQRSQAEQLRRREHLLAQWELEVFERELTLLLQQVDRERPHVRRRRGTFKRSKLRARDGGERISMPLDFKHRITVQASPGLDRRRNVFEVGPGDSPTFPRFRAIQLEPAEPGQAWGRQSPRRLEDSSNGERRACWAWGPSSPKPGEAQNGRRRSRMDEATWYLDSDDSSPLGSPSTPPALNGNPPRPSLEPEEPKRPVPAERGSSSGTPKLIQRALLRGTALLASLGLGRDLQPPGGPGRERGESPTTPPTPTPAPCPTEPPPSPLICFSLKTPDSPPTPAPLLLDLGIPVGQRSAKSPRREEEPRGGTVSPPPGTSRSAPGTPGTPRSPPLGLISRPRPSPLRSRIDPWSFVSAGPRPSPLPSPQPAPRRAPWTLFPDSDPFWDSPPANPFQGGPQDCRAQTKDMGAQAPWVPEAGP
Chain of RET (P07949 29-1114, species assumed): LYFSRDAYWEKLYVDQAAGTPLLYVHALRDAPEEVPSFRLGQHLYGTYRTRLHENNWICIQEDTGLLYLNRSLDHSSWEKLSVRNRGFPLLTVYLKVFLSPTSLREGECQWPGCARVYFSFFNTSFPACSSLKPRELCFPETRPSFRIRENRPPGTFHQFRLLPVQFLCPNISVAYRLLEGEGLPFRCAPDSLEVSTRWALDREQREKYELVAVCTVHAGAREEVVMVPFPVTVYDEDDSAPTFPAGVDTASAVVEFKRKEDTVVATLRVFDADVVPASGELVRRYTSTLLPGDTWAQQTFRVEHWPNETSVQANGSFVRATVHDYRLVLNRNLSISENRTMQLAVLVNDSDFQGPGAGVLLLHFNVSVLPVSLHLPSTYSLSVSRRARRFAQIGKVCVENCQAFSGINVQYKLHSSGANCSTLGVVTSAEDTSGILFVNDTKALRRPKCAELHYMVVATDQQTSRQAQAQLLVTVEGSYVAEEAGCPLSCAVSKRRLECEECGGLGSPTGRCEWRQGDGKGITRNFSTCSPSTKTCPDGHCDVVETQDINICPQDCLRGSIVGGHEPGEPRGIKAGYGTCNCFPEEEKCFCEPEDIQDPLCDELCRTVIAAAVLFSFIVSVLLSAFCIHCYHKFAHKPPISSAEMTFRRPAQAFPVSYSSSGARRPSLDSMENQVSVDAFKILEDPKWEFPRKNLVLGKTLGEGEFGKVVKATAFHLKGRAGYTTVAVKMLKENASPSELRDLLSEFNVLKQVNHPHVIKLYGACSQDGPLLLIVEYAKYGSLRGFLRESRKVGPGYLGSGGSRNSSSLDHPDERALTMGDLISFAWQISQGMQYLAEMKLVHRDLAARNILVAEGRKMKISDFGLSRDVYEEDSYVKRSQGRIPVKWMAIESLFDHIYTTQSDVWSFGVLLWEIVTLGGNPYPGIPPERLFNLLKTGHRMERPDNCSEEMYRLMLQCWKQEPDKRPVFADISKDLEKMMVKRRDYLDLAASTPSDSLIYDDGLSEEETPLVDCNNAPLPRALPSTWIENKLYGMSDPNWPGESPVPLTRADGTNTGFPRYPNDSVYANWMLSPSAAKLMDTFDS
Chain of ARK5/NUAK1 (O60285 whole entry): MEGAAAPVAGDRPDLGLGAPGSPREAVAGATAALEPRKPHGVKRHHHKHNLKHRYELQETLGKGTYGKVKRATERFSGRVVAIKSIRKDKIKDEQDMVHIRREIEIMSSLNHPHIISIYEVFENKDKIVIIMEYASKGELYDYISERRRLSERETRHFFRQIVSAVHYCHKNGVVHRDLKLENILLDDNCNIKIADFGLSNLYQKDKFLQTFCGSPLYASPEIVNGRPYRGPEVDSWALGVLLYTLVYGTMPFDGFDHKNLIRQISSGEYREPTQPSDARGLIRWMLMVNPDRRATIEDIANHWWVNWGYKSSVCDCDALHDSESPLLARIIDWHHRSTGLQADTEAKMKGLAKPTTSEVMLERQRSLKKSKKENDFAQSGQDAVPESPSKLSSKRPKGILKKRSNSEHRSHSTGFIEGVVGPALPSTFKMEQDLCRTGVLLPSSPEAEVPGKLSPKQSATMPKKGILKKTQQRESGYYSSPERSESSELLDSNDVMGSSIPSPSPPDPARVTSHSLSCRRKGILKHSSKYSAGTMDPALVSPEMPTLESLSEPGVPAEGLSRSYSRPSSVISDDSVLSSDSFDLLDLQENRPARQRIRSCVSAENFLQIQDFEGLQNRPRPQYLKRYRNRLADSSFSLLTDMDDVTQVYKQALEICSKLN
Chain of CLK1 (P49759 whole entry): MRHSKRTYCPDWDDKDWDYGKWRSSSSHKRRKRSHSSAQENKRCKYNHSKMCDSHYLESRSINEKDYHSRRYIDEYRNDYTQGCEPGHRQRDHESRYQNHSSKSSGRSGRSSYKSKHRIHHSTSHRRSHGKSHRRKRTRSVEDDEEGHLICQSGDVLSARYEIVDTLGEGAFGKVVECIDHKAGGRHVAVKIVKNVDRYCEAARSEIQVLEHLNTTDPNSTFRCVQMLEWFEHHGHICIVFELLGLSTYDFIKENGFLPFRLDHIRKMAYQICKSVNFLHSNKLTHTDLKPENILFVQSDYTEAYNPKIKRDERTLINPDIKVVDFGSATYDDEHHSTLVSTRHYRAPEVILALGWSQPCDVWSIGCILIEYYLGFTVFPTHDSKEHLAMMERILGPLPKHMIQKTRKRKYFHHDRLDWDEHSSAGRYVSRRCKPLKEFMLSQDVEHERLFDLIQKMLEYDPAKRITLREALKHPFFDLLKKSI
Chain of ALK1/ACVRL1 (P37023 22-503): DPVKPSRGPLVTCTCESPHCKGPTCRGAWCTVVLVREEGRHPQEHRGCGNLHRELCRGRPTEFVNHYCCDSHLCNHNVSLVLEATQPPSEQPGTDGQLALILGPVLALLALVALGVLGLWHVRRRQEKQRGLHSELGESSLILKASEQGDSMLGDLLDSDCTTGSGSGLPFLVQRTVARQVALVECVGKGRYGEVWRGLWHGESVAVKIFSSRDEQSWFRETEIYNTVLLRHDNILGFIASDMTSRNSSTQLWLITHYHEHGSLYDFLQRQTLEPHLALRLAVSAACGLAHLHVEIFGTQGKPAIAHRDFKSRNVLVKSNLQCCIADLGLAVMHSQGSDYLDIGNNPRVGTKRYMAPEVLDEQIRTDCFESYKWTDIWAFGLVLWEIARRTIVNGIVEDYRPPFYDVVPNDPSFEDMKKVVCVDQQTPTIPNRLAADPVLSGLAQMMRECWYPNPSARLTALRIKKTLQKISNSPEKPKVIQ

pIC50 [1]: < 5.00
pIC50 [3]: 7.45
pIC50 [4]: 7.78
pIC50 [5]: 7.77
pIC50 [6]: 6.87
pIC50 [7]: 7.05
pIC50 [8]: 6.72
pIC50 [9]: 7.14
pIC50 [10]: 7.20
IC50 ([11]; read-out: IC50 nM): 5.73 nM
pIC50 ([11]; read-out: IC50): 8.24
IC50 ([12]; read-out: IC50 nM): 63 nM
pIC50 ([12]; read-out: IC50): 7.20
pIC50 [13]: 7.95
pIC50 [14]: 8.02
IC50 ([15]; read-out: IC50 nM): 5.9 nM
pIC50 ([15]; read-out: IC50): 8.23
IC50 ([16]; read-out: IC50 nM): 72.6 nM
pIC50 ([16]; read-out: IC50): 7.14
pIC50 [17]: 6.87
pIC50 [18]: 6.80
pIC50 [19]: 7.11
pIC50 [20]: 6.83
pIC50 [21]: 6.96
pIC50 [22]: 7.53
Compound: CN(C)CCC1CCN(CCS(=O)(=O)c2ccc(-c3cnc(N)c(C(=O)Nc4ccccc4)n3)cc2)CC1 [Compound 5, 3-amino-6-(4-((2-(4-(2-(dimethylamino)ethyl)piperidin-1-yl)ethyl)sulfonyl)phenyl)-N-phenylpyrazine-2-carboxamide]
relative cell proliferation vs the drugs alone [2]: reduced

— patent publication US11787781B2, “Inhibiting ataxia telangiectasia and RAD3-related protein (ATR)” (Celator Pharmaceuticals, Inc., priority 2016, dated 2023)
